Experimental data from PubChem BioAssay (NCI).
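These data come from cells grown in 96-well plates and exposed to compound for 48 hours at five concentrations. GI50 is the concentration that inhibits growth by half. TGI denotes the concentration required for complete inhibition of growth.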

What was measured:
Assay in all cases: inhibition of tumour cell growth, NCI panel, 48 h
UO-31 renal = tested on: UO-31 renal
A498 renal = tested on: A498 renal
CCRF-CEM leukemia = tested on: CCRF-CEM leukemia
HOP-92 NSCLC = tested on: HOP-92 NSCLC
HCC-2998 colon = tested on: HCC-2998 colon
HT29 colon = tested on: HT29 colon
NCI-H23 lung = tested on: NCI-H23 lung
EKVX NSCLC = tested on: EKVX NSCLC
OVCAR-4 ovarian = tested on: OVCAR-4 ovarian
K-562 leukemia = tested on: K-562 leukemia
PC-3 prostate = tested on: PC-3 prostate
MDA-MB-231 breast = tested on: MDA-MB-231 breast
SF-268 CNS = tested on: SF-268 CNS
MDA-MB-435 = tested on: MDA-MB-435
OVCAR-5 ovarian = tested on: OVCAR-5 ovarian
CAKI-1 renal = tested on: CAKI-1 renal
M14 melanoma = tested on: M14 melanoma
RXF 393 renal = tested on: RXF 393 renal
NCI-H460 lung = tested on: NCI-H460 lung
SK-OV-3 ovarian = tested on: SK-OV-3 ovarian
HOP-62 NSCLC = tested on: HOP-62 NSCLC
BT-549 breast = tested on: BT-549 breast
DU-145 prostate = tested on: DU-145 prostate
RPMI-8226 leukemia = tested on: RPMI-8226 leukemia
SNB-75 CNS = tested on: SNB-75 CNS
NCI-H226 lung = tested on: NCI-H226 lung
UACC-257 melanoma = tested on: UACC-257 melanoma
MALME-3M melanoma = tested on: MALME-3M melanoma
SK-MEL-28 melanoma = tested on: SK-MEL-28 melanoma
KM12 colon = tested on: KM12 colon
LOX IMVI melanoma = tested on: LOX IMVI melanoma
A549 NSCLC = tested on: A549 NSCLC
OVCAR-8 ovarian = tested on: OVCAR-8 ovarian
NCI/ADR-RES ovarian = tested on: NCI/ADR-RES ovarian
SK-MEL-5 melanoma = tested on: SK-MEL-5 melanoma
786-0 renal = tested on: 786-0 renal
SNB-19 CNS = tested on: SNB-19 CNS
ACHN renal = tested on: ACHN renal
IGROV1 ovarian = tested on: IGROV1 ovarian
SN12C renal = tested on: SN12C renal
T-47D breast = tested on: T-47D breast
SK-MEL-2 melanoma = tested on: SK-MEL-2 melanoma
HL-60(TB) leukemia = tested on: HL-60(TB) leukemia
MOLT-4 leukemia = tested on: MOLT-4 leukemia
SR leukemia = tested on: SR leukemia
UACC-62 melanoma = tested on: UACC-62 melanoma
TK-10 renal = tested on: TK-10 renal
NCI-H522 lung = tested on: NCI-H522 lung
SF-295 CNS = tested on: SF-295 CNS
SW-620 colon = tested on: SW-620 colon
SF-539 CNS = tested on: SF-539 CNS
HCT-116 colon = tested on: HCT-116 colon
HS 578T breast = tested on: HS 578T breast
HCT-15 colon = tested on: HCT-15 colon
COLO 205 colon = tested on: COLO 205 colon
MCF7 breast = tested on: MCF7 breast
U251 CNS = tested on: U251 CNS

Work on `CN1CCN(Cc2ccc(NC(=O)c3cncc(C#Cc4cnc5ccc(OCC(C)(C)O)nn45)c3)cc2C(F)(F)F)CC1` yielded a GI50 (UO-31 renal) of 339 nM, a TGI (UO-31 renal) of 1060 nM and a GI50 (A498 renal) of 199 nM. For the same compound, the TGI (A498 renal) was 395 nM, the GI50 (CCRF-CEM leukemia) was 336 nM and the TGI (CCRF-CEM leukemia) was 12500 nM. It also gave a GI50 (HOP-92 NSCLC) of 38.5 nM, a TGI (HOP-92 NSCLC) of 225 nM and a GI50 (HCC-2998 colon) of 334 nM. For the same compound, the TGI (HCC-2998 colon) was 1020 nM, the GI50 (HT29 colon) was 203 nM and the TGI (HT29 colon) was 910 nM. For the same compound, the GI50 (NCI-H23 lung) was 185 nM, the TGI (NCI-H23 lung) was 478 nM and the GI50 (EKVX NSCLC) was 257 nM. The TGI (EKVX NSCLC) was 997 nM, the GI50 (OVCAR-4 ovarian) was 217 nM and the TGI (OVCAR-4 ovarian) was 1040 nM. The TGI (K-562 leukemia) was 1850 nM, the GI50 (PC-3 prostate) was 332 nM and the TGI (PC-3 prostate) was 1750 nM. For the same compound, the GI50 (MDA-MB-231 breast) was 114 nM, the TGI (MDA-MB-231 breast) was 548 nM and the GI50 (SF-268 CNS) was 180 nM. It also gave a TGI (SF-268 CNS) of 448 nM, a GI50 (MDA-MB-435) of 207 nM and a TGI (MDA-MB-435) of 698 nM. It also gave a GI50 (OVCAR-5 ovarian) of 295 nM, a TGI (OVCAR-5 ovarian) of 1200 nM and a GI50 (CAKI-1 renal) of 183 nM. It also gave a TGI (CAKI-1 renal) of 528 nM, a GI50 (M14 melanoma) of 139 nM and a TGI (M14 melanoma) of 305 nM. The GI50 (RXF 393 renal) was 181 nM, the TGI (RXF 393 renal) was 392 nM and the GI50 (NCI-H460 lung) was 297 nM. The TGI (NCI-H460 lung) was 851 nM, the GI50 (SK-OV-3 ovarian) was 378 nM and the TGI (SK-OV-3 ovarian) was 1160 nM. It also gave a GI50 (HOP-62 NSCLC) of 230 nM, a TGI (HOP-62 NSCLC) of 667 nM and a GI50 (BT-549 breast) of 386 nM. The TGI (BT-549 breast) was 1220 nM, the GI50 (DU-145 prostate) was 260 nM and the TGI (DU-145 prostate) was 786 nM. It also gave a GI50 (RPMI-8226 leukemia) of 344 nM, a TGI (RPMI-8226 leukemia) of 1380 nM and a GI50 (SNB-75 CNS) of 210 nM. The TGI (SNB-75 CNS) was 572 nM, the GI50 (NCI-H226 lung) was 148 nM and the TGI (NCI-H226 lung) was 1340 nM. The GI50 (UACC-257 melanoma) was 318 nM, the TGI (UACC-257 melanoma) was 1200 nM and the GI50 (MALME-3M melanoma) was 127 nM. For the same compound, the TGI (MALME-3M melanoma) was 370 nM, the GI50 (SK-MEL-28 melanoma) was 237 nM and the TGI (SK-MEL-28 melanoma) was 726 nM. The TGI (KM12 colon) was 830 nM, the GI50 (LOX IMVI melanoma) was 146 nM and the TGI (LOX IMVI melanoma) was 300 nM. For the same compound, the GI50 (A549 NSCLC) was 317 nM, the TGI (A549 NSCLC) was 1090 nM and the GI50 (OVCAR-8 ovarian) was 304 nM. The TGI (OVCAR-8 ovarian) was 1050 nM, the GI50 (NCI/ADR-RES ovarian) was 1640 nM and the TGI (NCI/ADR-RES ovarian) was 4680 nM. For the same compound, the GI50 (SK-MEL-5 melanoma) was 775 nM, the TGI (SK-MEL-5 melanoma) was 2050 nM and the GI50 (786-0 renal) was 323 nM. For the same compound, the TGI (786-0 renal) was 960 nM, the GI50 (SNB-19 CNS) was 356 nM and the TGI (SNB-19 CNS) was 1360 nM. It also gave a GI50 (ACHN renal) of 295 nM, a TGI (ACHN renal) of 1060 nM and a GI50 (IGROV1 ovarian) of 167 nM. For the same compound, the TGI (IGROV1 ovarian) was 1060 nM, the GI50 (SN12C renal) was 153 nM and the TGI (SN12C renal) was 864 nM. It also gave a GI50 (T-47D breast) of 369 nM, a TGI (T-47D breast) of 1910 nM and a GI50 (SK-MEL-2 melanoma) of 177 nM. It also gave a TGI (SK-MEL-2 melanoma) of 349 nM, a GI50 (HL-60(TB) leukemia) of 264 nM and a TGI (HL-60(TB) leukemia) of 873 nM. The GI50 (MOLT-4 leukemia) was 269 nM, the TGI (MOLT-4 leukemia) was 1410 nM and the GI50 (SR leukemia) was 249 nM. The TGI (SR leukemia) was 852 nM, the GI50 (UACC-62 melanoma) was 199 nM and the TGI (UACC-62 melanoma) was 843 nM. For the same compound, the GI50 (TK-10 renal) was 226 nM, the TGI (TK-10 renal) was 550 nM and the GI50 (NCI-H522 lung) was 179 nM. It also gave a TGI (NCI-H522 lung) of 370 nM, a GI50 (SF-295 CNS) of 726 nM and a TGI (SF-295 CNS) of 2060 nM. It also gave a GI50 (SW-620 colon) of 202 nM, a TGI (SW-620 colon) of 585 nM and a GI50 (SF-539 CNS) of 117 nM. The TGI (SF-539 CNS) was 403 nM, the GI50 (HCT-116 colon) was 170 nM and the TGI (HCT-116 colon) was 889 nM. For the same compound, the GI50 (HS 578T breast) was 156 nM, the TGI (HS 578T breast) was 578 nM and the GI50 (HCT-15 colon) was 287 nM. The TGI (HCT-15 colon) was 929 nM, the GI50 (COLO 205 colon) was 178 nM and the TGI (COLO 205 colon) was 349 nM. For the same compound, the GI50 (MCF7 breast) was 146 nM, the TGI (MCF7 breast) was 897 nM and the GI50 (U251 CNS) was 329 nM. The TGI (U251 CNS) was 1120 nM.
